Results: the NIST ThermoML archive (doi:10.1016/j.tca.2013.03.025)

Assay: xn = mol fraction of the nth substance listed
Conditions: 101 kPa, Liquid; for viscosity: Concentric cylinders viscometry; for mass density: Vibrating tube method

CCCCOC(=O)C(C)O (stereo not given) [butyl 2-hydroxypropanoate] + CCCO
Conditions | mass density [kg/m3] | viscosity [mPa·s]
288.15 K, x1 = 0.1 | 841.535 | 2.632
288.15 K, x1 = 0.2 | 869.447 | 2.786
288.15 K, x1 = 0.3001 | 892.853 | 2.979
288.15 K, x1 = 0.3998 | 912.61 | 3.19
288.15 K, x1 = 0.5 | 929.664 | 3.406
288.15 K, x1 = 0.5999 | 944.359 | 3.623
288.15 K, x1 = 0.7001 | 957.317 | 3.83
288.15 K, x1 = 0.7996 | 968.544 | 4.04
288.15 K, x1 = 0.8998 | 978.506 | 4.287
288.15 K, x1 = 1 | 987.269 | 4.628
293.15 K, x1 = 0.1 | 837.385 | 2.305
293.15 K, x1 = 0.2 | 865.152 | 2.431
293.15 K, x1 = 0.3001 | 888.44 | 2.584
293.15 K, x1 = 0.3998 | 908.086 | 2.751
293.15 K, x1 = 0.5 | 925.055 | 2.921
293.15 K, x1 = 0.5999 | 939.67 | 3.092
293.15 K, x1 = 0.7001 | 952.563 | 3.257
293.15 K, x1 = 0.7996 | 963.731 | 3.426
293.15 K, x1 = 0.8998 | 973.646 | 3.622
293.15 K, x1 = 1 | 982.366 | 3.88
298.15 K, x1 = 0.1 | 833.207 | 2.034
298.15 K, x1 = 0.2 | 860.837 | 2.147
298.15 K, x1 = 0.3001 | 883.997 | 2.277
298.15 K, x1 = 0.3998 | 903.535 | 2.413
298.15 K, x1 = 0.5 | 920.415 | 2.548
298.15 K, x1 = 0.5999 | 934.96 | 2.679
298.15 K, x1 = 0.7001 | 947.782 | 2.81
298.15 K, x1 = 0.7996 | 958.893 | 2.946
298.15 K, x1 = 0.8998 | 968.763 | 3.104
298.15 K, x1 = 1 | 977.448 | 3.307
303.15 K, x1 = 0.1 | 828.994 | 1.796
303.15 K, x1 = 0.2 | 856.474 | 1.888
303.15 K, x1 = 0.3001 | 879.517 | 1.994
303.15 K, x1 = 0.3998 | 898.955 | 2.105
303.15 K, x1 = 0.5 | 915.748 | 2.219
303.15 K, x1 = 0.5999 | 930.218 | 2.328
303.15 K, x1 = 0.7001 | 942.977 | 2.439
303.15 K, x1 = 0.7996 | 954.036 | 2.554
303.15 K, x1 = 0.8998 | 963.865 | 2.685
303.15 K, x1 = 1 | 972.515 | 2.85
308.15 K, x1 = 0.1 | 824.744 | 1.603
308.15 K, x1 = 0.2 | 852.093 | 1.679
308.15 K, x1 = 0.3001 | 875.001 | 1.769
308.15 K, x1 = 0.3998 | 894.346 | 1.862
308.15 K, x1 = 0.5 | 911.045 | 1.957
308.15 K, x1 = 0.5999 | 925.444 | 2.05
308.15 K, x1 = 0.7001 | 938.146 | 2.143
308.15 K, x1 = 0.7996 | 949.162 | 2.238
308.15 K, x1 = 0.8998 | 958.949 | 2.346
308.15 K, x1 = 1 | 967.567 | 2.481
313.15 K, x1 = 0.1 | 820.45 | 1.431
313.15 K, x1 = 0.2 | 847.649 | 1.5
313.15 K, x1 = 0.3001 | 870.443 | 1.579
313.15 K, x1 = 0.3998 | 889.684 | 1.659
313.15 K, x1 = 0.5 | 906.306 | 1.739
313.15 K, x1 = 0.5999 | 920.642 | 1.818
313.15 K, x1 = 0.7001 | 933.287 | 1.899
313.15 K, x1 = 0.7996 | 944.258 | 1.982
313.15 K, x1 = 0.8998 | 954.012 | 2.075
313.15 K, x1 = 1 | 962.603 | 2.181
318.15 K, x1 = 0.1 | 816.108 | 1.287
318.15 K, x1 = 0.2 | 843.16 | 1.349
318.15 K, x1 = 0.3001 | 865.84 | 1.417
318.15 K, x1 = 0.3998 | 884.981 | 1.486
318.15 K, x1 = 0.5 | 901.531 | 1.554
318.15 K, x1 = 0.5999 | 915.803 | 1.623
318.15 K, x1 = 0.7001 | 928.398 | 1.693
318.15 K, x1 = 0.7996 | 939.33 | 1.766
318.15 K, x1 = 0.8998 | 949.054 | 1.847
318.15 K, x1 = 1 | 957.624 | 1.935
323.15 K, x1 = 0.1 | 811.714 | 1.169
323.15 K, x1 = 0.2 | 838.623 | 1.222
323.15 K, x1 = 0.3001 | 861.188 | 1.28
323.15 K, x1 = 0.3998 | 880.239 | 1.339
323.15 K, x1 = 0.5 | 896.715 | 1.398
323.15 K, x1 = 0.5999 | 910.93 | 1.458
323.15 K, x1 = 0.7001 | 923.482 | 1.519
323.15 K, x1 = 0.7996 | 934.378 | 1.584
323.15 K, x1 = 0.8998 | 944.076 | 1.653
323.15 K, x1 = 1 | 952.631 | 1.728
